Measurements taken from ChEMBL document CHEMBL1150105, “Polytolypin, a new antifungal triterpenoid from the coprophilous fungus Polytolypa hystricis” (1995).
Active and inactive are the calls of the source. The calls are words filed in the database; no cut-off is given here.

What was measured:
Ascobolus = assay: Antifungal activity against Ascobolus furfuraceus NRRL 6460 at 100 ug/disk by standard disk assay; assay type: functional
Candida albicans = assay: Antifungal activity against Candida albicans ATCC 14053 at 80 ug /disk by standard disk assay; assay type: functional; details: read-out: IZ

| Compound | inhibition at 100 µg/disc (Ascobolus) | Activity (Ascobolus) | zone of inhibition at 80 µg/disc (Candida albicans) |
| --- | --- | --- | --- |
| CC(=O)CC1(O)C(=O)c2cc3c(c4c(C)cc(O)c(c24)C1=O)OC(C)C3(C)C (centres undefined) | 47% |  |  |
| Cc1cc(O)c2c3c(cc4c(c13)OC(C)C4(C)C)C(=O)/C(=N\C1C(=O)c3cc4c(c5c(C)cc(O)c(c35)C1=O)OC(C)C4(C)C)C2=O (centres undefined) |  | inactive |  |
| CC(C)[C@H]1CC[C@@H]2[C@]1(C)CC[C@]1(C)C3=CC[C@H]4[C@](C)(C(=O)O)[C@@H](O)[C@H](O)[C@@H](O)[C@]4(C(=O)O)[C@H]3CC[C@@]21C [POLYTOLYPIN] | 47% |  | 11 mm |
